Measured values as given in publication PMC7566600, “Engineering Af1521 improves ADP-ribose binding and identification of ADP-ribosylated proteins” (Nature Communications, 2020).

Target: T1, WT Af1521 macro domain (Archaeoglobus fulgidus, UniProt O28751)
T1 construct: gene AF_1521; macro domain, His-tagged
T1 sequence (O28751 1-192): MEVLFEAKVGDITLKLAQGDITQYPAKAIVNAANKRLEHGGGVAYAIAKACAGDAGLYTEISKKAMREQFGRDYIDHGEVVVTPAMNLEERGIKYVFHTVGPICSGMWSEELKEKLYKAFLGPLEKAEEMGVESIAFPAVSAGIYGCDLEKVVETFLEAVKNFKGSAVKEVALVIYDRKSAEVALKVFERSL
Test: SPR ([…] kinetic fit; steady-state fit gave […]), immobilized protein
Assay type: binding

Nc1ncnc2c1ncn2[C@@H]1O[C@H](COP(=O)(O)OP(=O)(O)OC[C@H]2O[C@H](O)[C@H](O)[C@@H]2O)[C@@H](O)[C@H]1O [ADP-ribose]
Kd: 2.879 ± 0.009 µM
